# Assay results as given in ChEMBL document CHEMBL4411258, “Novel natural compounds from endophytic fungi with anticancer activity” (Eur J Med Chem, 2018).
# How the values were obtained:
# [1] = test system: HL-60; experiment: Cytotoxicity against human HL60 cells by MTT assay; type: functional, cell-based
# [2] = Inhibition of TNFalpha-induced NFkappaB (unknown origin) activation expressed in HEK293 cells preincubated for 1 hr followed by TNFalpha stimulation and measured after 1 hr by dual luciferase reporter gene assay; type: cell-based; details: Homo sapiens
# [3] = Cytotoxicity against human Tca8113 cells after 72 hrs by MTT assay; type: functional, cell-based
# [4] = test system: MG-63; experiment: Cytotoxicity against human MG63 cells after 72 hrs by MTT assay; type: functional, cell-based; details: MG-63, 72 h
# [5] = test system: RPMI-8226; experiment: Cytotoxicity against human RPMI8226 cells after 48 hrs by MTT assay; type: functional, cell-based; details: RPMI-8226, 48 h
# [6] = test system: SH-SY5Y; experiment: Cytotoxicity against human SH-SY5Y cells by MTT assay; type: functional, cell-based
# [7] = test system: MCF7; experiment: Cytotoxicity against human MCF7 cells by MTT assay; type: functional, cell-based
# [8] = test system: NB-4; experiment: Cytotoxicity against human NB4 cells by MTT assay; type: functional, cell-based
# [9] = test system: A549; experiment: Cytotoxicity against human A549 cells by MTT assay; type: functional, cell-based
# [10] = test system: HepG2; experiment: Cytotoxicity against human HepG2 cells after 72 hrs by MTT assay; type: functional, cell-based; details: HepG2, 72 h
# [11] = test system: MDA-MB-435; experiment: Cytotoxicity against human MDA-MB-435 cells after 72 hrs by MTT assay; type: functional, cell-based; details: MDA-MB-435, 72 h
# [12] = test system: HCT-116; experiment: Cytotoxicity against human HCT116 cells after 72 hrs by MTT assay; type: functional, cell-based; details: HCT-116, 72 h
# [13] = test system: SGC-7901; experiment: Cytotoxicity against human SGC7901 cells by MTT assay; type: functional, cell-based
# [14] = test system: MDA-MB-435; experiment: Cytotoxicity against human MDA-MB-435 cells by MTT assay; type: functional, cell-based
# [15] = test system: MCF7; experiment: Cytotoxicity against human MCF7 cells by CCK8 assay; type: functional, cell-based
# [16] = test system: A549; experiment: Cytotoxicity against human A549 cells by CCK8 assay; type: functional, cell-based
# [17] = test system: HL-60; experiment: Cytotoxicity against human HL60 cells by CCK8 assay; type: functional, cell-based
# [18] = test system: SMMC-7721; experiment: Cytotoxicity against human SMMC7721 cells by CCK8 assay; type: functional, cell-based
# [19] = test system: SW480; experiment: Cytotoxicity against human SW480 cells by CCK8 assay; type: functional, cell-based
# [20] = Inhibition of TNFalpha-induced NFkappaB (unknown origin) activation expressed in HEK293 cells after 6 hrs by luciferase reporter gene based assay; type: cell-based; details: Homo sapiens, HEK293, 6 h
# [21] = test system: A2780; experiment: Cytotoxicity against human A2780 cells after 72 hrs by MTT assay; type: functional, cell-based; details: A2780, 72 h
# [22] = test system: T47D; experiment: Cytotoxicity against human T47D cells after 48 hrs by MTT assay; type: functional, cell-based
# [23] = test system: MKN-45; experiment: Cytotoxicity against human MKN45 cells after 24 hrs by MTT assay; type: functional, cell-based; details: MKN-45, 24 h
# [24] = test system: A549; experiment: Cytotoxicity against human A549 cells after 24 hrs by MTT assay; type: functional, cell-based; details: A549, 24 h
# [25] = test system: LoVo; experiment: Cytotoxicity against human LoVo cells after 24 hrs by MTT assay; type: functional, cell-based
# [26] = test system: HL-60; experiment: Cytotoxicity against human HL60 cells after 24 hrs by MTT assay; type: functional, cell-based; details: HL-60, 24 h
# [27] = test system: HCT-116; experiment: Cytotoxicity against human HCT116 cells by MTT assay; type: functional, cell-based
# [28] = test system: HeLa; experiment: Cytotoxicity against human HeLa cells by MTT assay; type: functional, cell-based
# [29] = test system: K562; experiment: Cytotoxicity against human K562 cells by trypan blue exclusion assay; type: functional, cell-based
# [30] = test system: HL-60; experiment: Cytotoxicity against human HL60 cells by trypan blue exclusion assay; type: functional, cell-based
# [31] = test system: HepG2; experiment: Cytotoxicity against human HepG2 cells by MTT assay; type: functional, cell-based
# [32] = test system: L02; experiment: Cytotoxicity against human L02 cells by MTS assay; type: cell-based
# [33] = target: Polyunsaturated fatty acid 5-lipoxygenase (Homo sapiens) (UniProt P09917); experiment: Inhibition of 5-LOX (unknown origin) at 30 ug/ml relative to control
# Chain of Polyunsaturated fatty acid 5-lipoxygenase (Homo sapiens) (P09917 whole entry): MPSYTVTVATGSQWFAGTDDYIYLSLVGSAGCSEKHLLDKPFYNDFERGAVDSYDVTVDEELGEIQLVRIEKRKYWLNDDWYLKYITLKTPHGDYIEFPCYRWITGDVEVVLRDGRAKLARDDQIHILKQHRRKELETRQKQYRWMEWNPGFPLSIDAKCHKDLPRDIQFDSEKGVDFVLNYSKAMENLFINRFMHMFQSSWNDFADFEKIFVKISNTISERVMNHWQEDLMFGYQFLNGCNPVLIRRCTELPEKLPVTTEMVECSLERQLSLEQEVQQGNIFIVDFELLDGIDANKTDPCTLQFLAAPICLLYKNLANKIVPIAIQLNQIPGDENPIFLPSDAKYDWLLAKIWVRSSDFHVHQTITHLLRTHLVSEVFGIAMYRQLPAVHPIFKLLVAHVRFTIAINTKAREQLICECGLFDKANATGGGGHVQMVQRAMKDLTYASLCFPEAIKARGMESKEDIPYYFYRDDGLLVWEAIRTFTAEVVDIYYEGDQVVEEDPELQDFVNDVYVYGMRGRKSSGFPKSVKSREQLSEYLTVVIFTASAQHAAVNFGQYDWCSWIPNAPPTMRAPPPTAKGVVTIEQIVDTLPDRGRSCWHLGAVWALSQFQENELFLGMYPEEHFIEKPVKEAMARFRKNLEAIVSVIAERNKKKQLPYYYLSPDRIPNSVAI
compound,measurement,setting,value
COC1=C2c3cc(OC)cc(O)c3C(=O)O[C@]2(C)CC1=O,IC50,[1],75.3 µM
CC1=C(C)C2=CC(=O)C3=C(C(=O)c4oc(C)cc4C3=O)[C@@]2(C)CC1=O,IC50,[1],12.5 µM
CO[C@]12OC[C@@H](C)[C@H]1C[C@]1(C)[C@@H](C)CC[C@H](O)[C@@]13O[C@@H]23,IC50,[2],19.2 µM
CC(C)(O)C(O)COc1ccc(CCO)cc1 (stereo not drawn),IC50,[3],26 µM
same,IC50,[4],35 µM
CC(C)=C1CC[C@@]2(C)OC3=C(C[C@@H]12)C(=O)[C@]1(O)CO[C@H]3C1,IC50,[5],83.7 µM
COC(=O)[C@@H]1c2c(oc3cc(CO)cc(OC)c3c2=O)C=C[C@H]1O,IC50,[6],4.9 µM
same,IC50,[7],8.8 µM
same,IC50,[8],8.6 µM
same,IC50,[9],5.7 µM
O=Cc1c(O)cc(O)cc1/C=C/c1ccc(O)cc1,IC50,[10],< 50 µM
same,IC50,[11],< 50 µM
same,IC50,[12],< 50 µM
CC1=C[C@@H]2/C=C/C[C@H](C)/C=C(\C)[C@@H](O)C(=O)/C=C/C(=O)[C@]23C(=O)N[C@H]2Cc4c([nH]c5ccccc45)[C@@]1(C)[C@@H]23,IC50,[9],16.1 µM
same,IC50,[13],7.32 µM
same,IC50,[14],7.55 µM
C[C@@H]1CC[C@@H]2[C@@H](C)C(=O)O[C@@H]2[C@@]12C=C(CO)CC2,IC50,[3],10 µM
same,IC50,[4],0.055 µM
C=C1[C@@H](C)[C@H]2[C@H](Cc3ccccc3)NC(=O)[C@]23C(=O)/C=C/C(=O)CCC[C@@H](C)C/C=C/[C@H]3[C@@H]1O,IC50,[15],7.7 to 15.8 µM
same,IC50,[16],7.7 to 15.8 µM
same,IC50,[17],7.7 to 15.8 µM
same,IC50,[18],7.7 to 15.8 µM
same,IC50,[19],7.7 to 15.8 µM
CCCCC[C@@H]1OC2=C(C(=O)N(OC)C2C[S@+]([O-])C[C@@H](O)C(=O)O)[C@H](O)[C@@]1(C)O (stereo partly drawn),IC50,[20],1500 nM
CO[C@H]1C[C@H](O)C2=C(C[C@H]3C(=C(C)C)CC[C@@]3(C)O2)C1=O,IC50,[5],92.1 µM
O=Cc1cc(/C=C/c2cc(O)cc(O)c2)ccc1O,IC50,[10],< 50 µM
same,IC50,[11],< 50 µM
same,IC50,[12],< 50 µM
O=C1N[C@@]2(Cc3ccccc3O2)C(=O)N/C1=C\c1ccccc1O,IC50,[21],59 µM
C=CC1=CC2=CC(=O)[C@](C)(OC(=O)/C=C/C(C)=C/[C@@H](C)CCCC)C(=O)C2=CO1,IC50,[22],1 to 10 µM
CC1=C[C@@H]2/C=C/C[C@H](C)/C=C(\C)C(=O)C(=O)/C=C/C(=O)[C@]23C(=O)N[C@H]2Cc4c([nH]c5ccccc45)[C@@]1(C)[C@@H]23,IC50,[9],8.73 µM
same,IC50,[13],5.32 µM
same,IC50,[14],4.65 µM
CCCC[C@H](O)C(=O)C/C(=C\C(=O)O)OC,IC50,[23],< 200 µM
same,IC50,[24],< 200 µM
same,IC50,[25],< 200 µM
same,IC50,[26],< 200 µM
CCCCc1c(OC)cc(=O)oc1C,IC50,[27],45.1 µM
same,IC50,[28],27 µM
same,IC50,[9],38.7 µM
COc1cc(=O)oc(C)c1CCC(C)=O,IC50,[29],0.3 µg/mL
same,IC50,[30],0.18 µg/mL
CCCC[C@H](C)/C=C(C)/C=C/C(=O)O,IC50,[22],1 to 10 µM
COC(=O)[C@]1(Cc2ccc(O)c(CC(C)=O)c2)OC(=O)C(O)=C1c1ccc(OC)cc1,IC50,[6],< 10 µM
same,IC50,[31],< 10 µM
same,IC50,[8],< 10 µM
same,IC50,[32],< 10 µM
CCCCC(O)/C=C/C1=C(CO)[C@@H](O)[C@@H](O)[C@](Cl)(C/C=C(\C)C(=O)O)C1=O (stereo partly drawn),inhibition,[33],48.3%
